For data set [1], the system named is HeLa. Kind of data set: Cytotoxicity against human HeLa MKYP cells assessed as cell death at 25 uM treated with FCCP/oliogmycin and measured DAPI staining method assay relative to control. The class given is toxicity, cell-based.
The nature of data set [2]: Induction of mitophagy in human HeLa MKYP cells treated with FCCP/oligomycin for 6 hrs and measured by FACS analysis. The data set is classed as functional, cell-based.
For data set [3], the system named is HeLa. Kind of data set: Cytotoxicity against human HeLa MKYP cells assessed as percentage of DAPI-positive cells at 50 uM and measured by DAPI staining method. The class given is toxicity, cell-based.
Data set [4] relates to HeLa. As to the kind of experiment: Cytotoxicity against human HeLa MKYP cells assessed as cell death at 25 uM and measured DAPI staining method assay relative to control. The data set is classed as toxicity, cell-based.
Data set [5] in a line: Solubility of compound in PBS. The data set is classed as physicochemical.
Data set [6] in a line: Induction of mitophagy in human HeLa MKYP cells treated at 6.3 uM with FCCP/oligomycin for 6 hrs and measured by FACS analysis relative to control. The data set is classed as functional.
Data set [7] can be described thus: Ratio of highest compound concentration with no observable mitotoxicity to EC50 of compound to induce mitophagy in human HeLa MKYP cells. The class given is functional.

≈ marks a conversion by molar mass, not a printed value.

Consider `C[C@@H]1CCc2ccccc2[C@H]1Nc1ncnc2[nH]c(C(F)(F)F)cc12`, for which the Activity came to 23.8% in data set [1], 23.8% in data set [3] and 17.9% in data set [4]. In addition, in data set [2], the 50% effective concentration (EC50) is 4.18 µM. Also, the concentration in solution in data set [5] (solubility) was 1 µM (≈ 0.346 µg/mL).

As for `FC(F)(F)c1cc2c(NC3CCc4ccccc43)ncnc2[nH]1` (stereo in doubt; 17), the Activity in data set [3] amounted to 2.3%; in data set [6] (6 h, 6.3 µM), 14.8%.

Consider `CCCCNc1ncnc2[nH]c(C)cc12`, for which the Activity in data set [3] is reported as 15.4%; in data set [6] it was 43.4%.

Consider `c1ccc2c(c1)CCC[C@H]2Nc1ncnc2[nH]c(C3CC3)cc12`, for which, in data set [7], the Ratio worked out at 53.2. Further, the Activity in data set [1] is recorded as 14.9%; in data set [3] it was 16.6%; in data set [4], 9.32%. Moreover, the EC50 in data set [2] amounted to 0.47 µM. Also, the concentration in solution in data set [5] (solubility) came to 1 µM (≈ 0.304 µg/mL).

For `OC1CCc2ccccc2C1Nc1ncnc2[nH]c(C(F)(F)F)cc12` (stereo unspecified), the results for the Activity in data set [1], in data set [3] and in data set [4] were 12.8%, 12.8% and 3.79%, respectively. Also, the EC50 in data set [2] was > 50 µM. For the same molecule, the solubility in data set [5] is 1 µM (≈ 0.348 µg/mL).

As for `CCCCNc1ncnc2[nH]c(C(F)(F)F)cc12`, the Activity in data set [3] came to 4.6%; in data set [6], 42.3%.

Regarding `O[C@@H]1Cc2ccccc2[C@H]1Nc1ncnc2[nH]c(C(F)(F)F)cc12`, the Ratio in data set [7] is 1.66. In addition, the Activity is 7.59% in data set [1], 7.6% in data set [3] and 2.35% in data set [4]. For the same molecule, in data set [2], the midpoint of the response, the EC50, lay at 15.1 µM.

`C[C@H]1CCc2ccccc2[C@@H]1Nc1ncnc2[nH]c(C(F)(F)F)cc12`: the Ratio in data set [7] is given as 8.69. The Activity amounted to 13.32% in data set [1], 13.3% in data set [3] and 3.79% in data set [4]. In data set [2], the half-maximal effective concentration (EC50) was found to be 0.6 µM. In data set [5], this molecule displayed a solubility of 1 µM (≈ 0.346 µg/mL).

`CCCCNc1ncnc2[nH]c(CC)cc12`: the figures for the Activity in data set [3] and in data set [6] were 93.4% and 14%, respectively.

`FC(F)(F)c1cc2c(NCc3ccccc3)ncnc2[nH]1`: the Activity in data set [3] amounted to 50.4%; in data set [6] it was 35.1%.

With `FC(F)(F)c1cc2c(NC3COc4ccccc43)ncnc2[nH]1` (stereo unspecified), the figures for the Activity in data set [3] and in data set [6] were 39.7% and 52.5%, respectively.

Turning to `CC(C)(Nc1ncnc2[nH]c(C(F)(F)F)cc12)c1ccccc1`, the Activity worked out at 5.6% in data set [3] and 17% in data set [6].

For the molecule `OC[C@@H]1CCc2ccccc2[C@H]1Nc1ncnc2[nH]c(C(F)(F)F)cc12`, the Ratio in data set [7] is 7.25. Also, the Activity in data set [1] is given as 59.535%; in data set [3] it was 59.5%; in data set [4], 27%. For the same molecule, the EC50 in data set [2] was 1.1 µM.

Take `CC(Nc1ncnc2[nH]c(C(F)(F)F)cc12)c1ccccc1` (stereo unspecified): the Activity in data set [3] amounted to 2.4%; in data set [6], 88.4%.

Regarding `CN1CC[C@H](Nc2ncnc3[nH]c(C(F)(F)F)cc23)c2ccccc21`, the Ratio in data set [7] was found to be 30. Moreover, the results for the Activity in data set [1], in data set [3] and in data set [4] were 16%, 59% and 2.51%, respectively. This molecule also came in with an EC50 in data set [2] of 1.33 µM.

Regarding `CO[C@H]1CCc2ccccc2[C@@H]1Nc1ncnc2[nH]c(C(F)(F)F)cc12`, the Activity stood at 7.67% in data set [1], 7.7% in data set [3] and 5.15% in data set [4]. The EC50 in data set [2] was determined as 1.48 µM. The molecule further yielded a solubility in data set [5] of 1.31 µM (≈ 0.475 µg/mL).

Consider `CC[C@@H]1CCc2ccccc2[C@@H]1Nc1ncnc2[nH]c(C(F)(F)F)cc12`, for which the Ratio in data set [7] is recorded as 13.8. Besides, the values for the Activity in data set [1], in data set [3] and in data set [4] were 8.735%, 8.7% and 5.04%, respectively. Besides, a half-maximal response in data set [2] (EC50) required 1.8 µM.

As for `FC(F)(F)c1cc2c(N[C@@H]3CCOc4ccccc43)ncnc2[nH]1`, in data set [7], the Ratio is on record as 8.85. In addition, the Activity in data set [1] amounted to 21%; in data set [3], 21.1%; in data set [4], 3.04%. Also, the half-maximal effective concentration (EC50) in data set [2] was 6.3 µM.

With `C[C@H]1CCc2ccccc2[C@H]1Nc1ncnc2[nH]c(C(F)(F)F)cc12`, the Ratio in data set [7] is 7.74. For the same molecule, the Activity in data set [1] is on record as 12%; in data set [3], 12%; in data set [4] it was 6.45%. Further, the midpoint of the response in data set [2], the EC50, lay at 1.1 µM.

In the case of `CCCCNc1ncnc2[nH]c(CC(F)(F)F)cc12`, the Activity in data set [3] turned out to be 24.8%; in data set [6] it was 13.9%.

Take `FC(F)(F)c1cc2c(NC3CCc4ccccc43)ncnc2[nH]1` (stereo in doubt; 18): the Activity is listed as 1.7% in data set [3] and 14.3% in data set [6] (6 h, 6.3 µM).

As for `O[C@@H]1Cc2ccccc2[C@@H]1Nc1ncnc2[nH]c(C(F)(F)F)cc12`, the Activity stood at 35.6% in data set [1], 35.6% in data set [3] and 5.5% in data set [4]. In addition, in data set [2], the concentration giving a half-maximal response (EC50) worked out at 9 µM.

Turning to `N#Cc1cccc2c1CCCC2Nc1ncnc2[nH]c(C(F)(F)F)cc12` (stereo unspecified), the Ratio in data set [7] came out at 8.39. Also, the figures for the Activity in data set [1], in data set [3] and in data set [4] were 71.2%, 71.2% and 57.1%, respectively. The EC50 in data set [2] is 2.98 µM. This molecule had a solubility in data set [5] of 1 µM (≈ 0.357 µg/mL).

Consider `CCCCNc1ncnc2[nH]c(-c3ccccc3)cc12`, for which the figures for the Activity in data set [3] and in data set [6] were 90% and 52%, respectively.

With `COc1ccc2c(c1)CCCC2Nc1ncnc2[nH]c(C(F)(F)F)cc12` (stereo unspecified), the values for the Activity in data set [3] and in data set [6] were 95.5% and 29.8%, respectively.

Regarding `CO[C@H]1COc2ccccc2[C@@H]1Nc1ncnc2[nH]c(C(F)(F)F)cc12`, the figures for the Activity in data set [1], in data set [3] and in data set [4] were 15.865%, 15.9% and 3.66%, respectively. Further, a half-maximal response in data set [2] (EC50) required 4 µM.

Regarding `FC(F)(F)c1cc2c(NC3(c4ccccc4)CC3)ncnc2[nH]1`, the Activity was 80.5% in data set [3] and 20.8% in data set [6].

As to `O[C@H]1Cc2ccccc2[C@@H]1Nc1ncnc2[nH]c(C(F)(F)F)cc12`, in data set [7], the Ratio was 1.35. For the same molecule, the Activity in data set [1] turned out to be 14.4%; in data set [3], 14.4%; in data set [4], 2.51%. In data set [2], this molecule registered a concentration giving a half-maximal response (EC50) of 18.5 µM.

On to `CO[C@@H]1COc2ccccc2[C@@H]1Nc1ncnc2[nH]c(C(F)(F)F)cc12`, for which the Activity worked out at 12.11% in data set [1], 12.1% in data set [3] and 3.4% in data set [4]. In data set [2], this molecule came in with an EC50 of 1.6 µM.

With `OC[C@H]1CCc2ccccc2[C@@H]1Nc1ncnc2[nH]c(C(F)(F)F)cc12`, the Activity in data set [1] is 30.87%; in data set [3], 30.9%; in data set [4] it was 9.83%. The EC50 in data set [2] came out at 5.5 µM.

As for `CCCCNc1ncnc2[nH]c(-c3ccnn3C)cc12`, the figures for the Activity in data set [3] and in data set [6] were 94.6% and 15%, respectively.

On to `FC(F)(F)c1cc2c(NC3CCCc4ccccc43)ncnc2[nH]1` (stereo in doubt; 16), for which the Activity in data set [3] was 4.5%; in data set [6] (6 h, 6.3 µM), 10.1%.

Turning to `CCCCNc1ncnc2[nH]c(C(OCC)C(F)(F)F)cc12` (stereo unspecified), the Activity in data set [3] was found to be 15.8%; in data set [6], 17.9%.

Consider `Fc1ccc2c(c1)CCCC2Nc1ncnc2[nH]c(C(F)(F)F)cc12` (stereo unspecified), for which the results for the Activity in data set [1], in data set [3] and in data set [4] were 30.1%, 30.1% and 3.27%, respectively. In data set [2], this molecule returned a concentration giving a half-maximal response (EC50) of 1.06 µM. The molecule further registered a solubility in data set [5] of 1 µM (≈ 0.35 µg/mL).

On to `CO[C@@H]1CCc2ccccc2[C@H]1Nc1ncnc2[nH]c(C(F)(F)F)cc12`, for which the results for the Activity in data set [1], in data set [3] and in data set [4] were 18.4%, 18.4% and 15.3%, respectively. For the same molecule, the half-maximal effective concentration (EC50) in data set [2] stood at 22.1 µM. In addition, in data set [5], the solubility was 1 µM (≈ 0.362 µg/mL).

The record behind these values is ChEMBL document CHEMBL5050850, “Compositions and methods of using the same for treatment of neurodegenerative and mitochondrial disease” (2020).
